What was measured:
[1] = Caco-2 Permeability Assay; assay type: in vitro ADME, human; conditions: human
How it was run: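 Bidirectional transport at 37 °C for 90 min, 10 μM donor concentration, with or without Pgp inhibitor, across 21-day Caco-2 monolayers with TEER >600 […] in HEPES-buffered HBSS, pH 7.4. LC-MS/MS of donor and receiver samples gives Papp, B→A/A→B efflux ratio and mass recovery.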

[2] = Stability in Simulated Gastric Fluid (SGF); assay type: in vitro ADME; parameters: key: % parent compound remaining relative to 0-minute sample
How it was run: (§1)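 LC-MS/MS read-out of intact compound (2 μg/mL final) over 60 minutes at 37° C; gastric medium pH 1.2 with pepsin, intestinal medium pH 6.8 with pancreatin. Half-life from ln(% remaining) against time.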

[3] = Stability in Simulated Intestinal Fluid (SIF); assay type: in vitro ADME; parameters: key: % parent compound remaining relative to 0-minute sample
How it was run: as §1

Plasma Stability = assay type: in vitro ADME, human
How it was run: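 Parent compound quantified by LC-MS/MS after acetonitrile precipitation, reported as percent of control remaining (triplicate). Incubation: 1 hour, 37° C, fresh human plasma, compound at 1 μM.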

[4] = Caco-2, pH 7.4, Caco-2 monolayer, the 17th table
[5] = % remaining at 1 h in simulated gastric fluid, the 17th table
[6] = % remaining at 1 h in simulated intestinal fluid, the 17th table
[7] = % remaining at 1 h in human plasma, the 17th table
[8] = Caco-2, pH 7.4, Caco-2 monolayer
[9] = % @ 1 h (remaining) in simulated gastric fluid
[10] = % @ 1 h (remaining) in simulated intestinal fluid
[11] = % @ 1 h (remaining) in human plasma
[12] = % remaining at 1 h in simulated gastric fluid
[13] = % remaining at 1 h in simulated intestinal fluid
[14] = % remaining at 1 h in human plasma
[15] = Caco-2, pH 7.4, donor 10 μM, 90 minutes, 37° C., direction not given
[16] = % remaining at 1 h, SGF with pepsin pH 1.2, 2 μg/mL, 37° C.
[17] = % remaining at 1 h, SIF with pancreatin pH 6.8, 2 μg/mL, 37° C.
[18] = % remaining at 1 h, human plasma, 1 μM, 37° C.
[19] = Caco-2, pH 7.4, Caco-2 monolayer, the 15th table
[20] = % remaining at 1 h in simulated gastric fluid, the 15th table
[21] = % remaining at 1 h in simulated intestinal fluid, the 15th table
[22] = % remaining at 1 h in human plasma, the 15th table

`CCCCCOC(=O)OCSc1nc(=O)c2c(ccn2COC(=O)OCCCCC)n1CCOC(C)C` [Example 217] showed a Papp at 90 min, 10 µM [1, 4] of 5.32 ×10⁻⁶ cm/s, an SGF [2, 5] of 88% remaining and an SIF [3, 6] of 1% remaining. For the same compound, the “human Plasma stability” value (Plasma Stability; [7]) was 5% remaining.

`CCN(C)C(=O)OCSc1nc(=O)c2[nH]ccc2n1CCOC(C)C` [Example 163] gave a Papp at 90 min, 10 µM [1, 8] of 4.2 ×10⁻⁶ cm/s, an SGF [2, 9] of 99% @ 1 h and an SIF [3, 10] of 96% @ 1 h. The “human Plasma stability” value (Plasma Stability; [11]) was 90% @ 1 h.

Compound `CSCC[C@H](NC(=O)OCC1c2ccccc2-c2ccccc21)C(=O)NCCC(=O)OCn1ccc2c1c(=O)[nH]c(=S)n2CCOC(C)C.O=C(O)C(F)(F)F` [Example 21] has a Papp at 90 min, 10 µM [1, 8] of 5.79 ×10⁻⁶ cm/s, an SGF [2, 12] of 88% remaining and an SIF [3, 13] of 75% remaining. The “human Plasma stability” value (Plasma Stability; [14]) was 91% remaining.

In the case of `CC(C)OCCn1c(=S)[nH]c(=O)c2c1ccn2COC(=O)[C@@H]1CCC(=O)N1C(=O)OCc1ccccc1` [Example 4, 1-benzyl 2-{4-oxo-1-[2-(propan-2-yloxy)ethyl]-2-sulfanylidene-1H,2H,3H,4H,5H-pyrrolo[3,2-d]pyrimidin-5-yl}methyl (2S)-5-oxopyrrolidine-1,2-dicarboxylate], the Papp at 90 min, 10 µM [1, 15] was 13.4 ×10⁻⁶ cm/s, the SGF [2, 16] was 97% and the SIF [3, 17] was 94%. The “human Plasma stability” value (Plasma Stability; [18]) was 40%.

With `CCN(C(=O)OCSc1nc(=O)c2c(ccn2COC(=O)N(CC)C(C)C)n1CCOC(C)C)C(C)C` [Example 189] the Papp at 90 min, 10 µM [1, 19] was 30.6 ×10⁻⁶ cm/s, the SGF [2, 20] was 99% @ 1 h and the SIF [3, 21] was 97% @ 1 h. The “human Plasma stability” value (Plasma Stability; [22]) was 98% @ 1 h.

Work on `CSCC[C@H](NC(=O)OCC1c2ccccc2-c2ccccc21)C(=O)NCCCCC(=O)OCn1ccc2c1c(=O)[nH]c(=S)n2CCOC(C)C.O=C(O)C(F)(F)F` [Example 20] yielded a Papp at 90 min, 10 µM [1, 8] of 0.985 ×10⁻⁶ cm/s, an SGF [2, 12] of 80% remaining and an SIF [3, 13] of 76% remaining. The “human Plasma stability” value (Plasma Stability; [14]) was 64% remaining.

Compound `CCC(C)NC(=O)n1ccc2c1c(=O)[nH]c(=S)n2CCOC(C)C` (stereo not drawn) [Example 226] has a Papp at 90 min, 10 µM [1, 4] of 35.1 ×10⁻⁶ cm/s, an SGF [2, 5] of 91% remaining and an SIF [3, 6] of 83% remaining. The “human Plasma stability” value (Plasma Stability; [7]) was 97% remaining.

Compound `CC(C)OCCn1c(=S)[nH]c(=O)c2c1ccn2C(=O)OC(C)(C)C` [Example 191] has a Papp at 90 min, 10 µM [1, 19] of 1.08 ×10⁻⁶ cm/s, an SGF [2, 20] of 15% @ 1 h and an SIF [3, 21] of 82% @ 1 h. For the same compound, the “human Plasma stability” value (Plasma Stability; [22]) was 16% @ 1 h.

Work on `CC(C)OCCn1c(=S)[nH]c(=O)c2c1ccn2COC(=O)CCNC(=O)CNC(=O)OC(C)(C)C` [Example 9, {4-Oxo-1-[2-(propan-2-yloxy)ethyl]-2-sulfanylidene-1H,2H,3H,4H,5H-pyrrolo[3,2-d]pyrimidin-5-yl}methyl 3-(2-{[(tert-butoxy)carbonyl]amino}acetamido)propanoate] yielded a Papp at 90 min, 10 µM [1, 15] of 1.53 ×10⁻⁶ cm/s, an SGF [2, 16] of 100% and an SIF [3, 17] of 61%. For the same compound, the “human Plasma stability” value (Plasma Stability; [18]) was 52%.

For `CSCC[C@H](NC(=O)OC(C)(C)C)C(=O)OCCCCC(=O)OCn1ccc2c1c(=O)[nH]c(=S)n2CCOC(C)C` [Example 352, {4-oxo-1-[2-(propan-2-yloxy)ethyl]-2-sulfanylidene-1H,2H,3H,4H,5H-pyrrolo[3,2-d]pyrimidin-5-yl}methyl 5-{[(2S)-2-{[(tert-butoxy)carbonyl]amino}-4-(methylsulfanyl)butanoyl]oxy}pentanoate], the Papp at 90 min, 10 µM [1, 8] was 2.03 ×10⁻⁶ cm/s, the SGF ([2]; simulated gastric fluid, remaining at 1 h) was 92% remaining and the SIF ([3]; simulated intestinal fluid, remaining at 1 h) was 9% remaining. The “human Plasma stability” value (Plasma Stability; human plasma, remaining at 1 h) was 9% remaining.

`CC(C)OCCn1c(=S)[nH]c(=O)c2c1ccn2COC(=O)CCNC(=O)[C@@H]1CCC(=O)N1C.O=C(O)C(F)(F)F` [Example 64] gave a Papp at 90 min, 10 µM [1, 8] of less than 0.19 ×10⁻⁶ cm/s, an SGF [2, 12] of 98% remaining and an SIF [3, 13] of 97% remaining. The “human Plasma stability” value (Plasma Stability; [14]) was 76% remaining.

In the case of `CC(C)CN(C)C(=O)OCSc1nc(=O)c2[nH]ccc2n1CCOC(C)C` [Example 172], the Papp at 90 min, 10 µM [1, 8] was 23.7 ×10⁻⁶ cm/s, the SGF [2, 9] was 100% @ 1 h and the SIF [3, 10] was 95% @ 1 h. The “human Plasma stability” value (Plasma Stability; [11]) was 98% @ 1 h.
